Measurements published in a compilation of properties of binary mixtures (doi:10.1021/je950194b).

Assay: excess molar enthalpy (molar enthalpy of mixing); xn = mol fraction of the nth substance listed
Settings: 313.15 K, 100 kPa

CCC(=O)O + C1CCCCC1
Settings	excess molar enthalpy [kcal/mol]
x1 = 0.0571	0.0337
x1 = 0.108	0.0657
x1 = 0.1537	0.0913
x1 = 0.195	0.112
x1 = 0.3264	0.154
x1 = 0.4209	0.168
x1 = 0.4921	0.171
x1 = 0.5924	0.167
x1 = 0.6856	0.147
x1 = 0.744	0.129
x1 = 0.8134	0.0982
x1 = 0.8971	0.0507
x1 = 0.9208	0.0359
x1 = 0.9458	0.0196

CCC(=O)O + C1CCOCC1
Settings	excess molar enthalpy [kcal/mol]
x1 = 0.0528	-0.0263
x1 = 0.1003	-0.0504
x1 = 0.1433	-0.0679
x1 = 0.1823	-0.0813
x1 = 0.3085	-0.112
x1 = 0.4009	-0.121
x1 = 0.6675	-0.101
x1 = 0.8006	-0.0648
x1 = 0.8893	-0.0335
x1 = 0.9146	-0.0229
x1 = 0.9414	-0.0127
x1 = 0.9698	-0.00598

CCC(=O)O + C1COCCO1
Settings	excess molar enthalpy [kcal/mol]
x1 = 0.087	-0.0294
x1 = 0.125	-0.0351
x1 = 0.16	-0.039
x1 = 0.2222	-0.0406
x1 = 0.2759	-0.0392
x1 = 0.3636	-0.0318
x1 = 0.4325	-0.0239
x1 = 0.5334	-0.0103
x1 = 0.6957	0.0131
x1 = 0.7742	0.0206
x1 = 0.8728	0.0203
x1 = 0.9014	0.0174
x1 = 0.9648	0.00813

CCC(=O)O + CCCCCCCC
Settings	excess molar enthalpy [kcal/mol]
x1 = 0.1539	0.065
x1 = 0.2144	0.0856
x1 = 0.2668	0.104
x1 = 0.3531	0.126
x1 = 0.4212	0.138
x1 = 0.5219	0.146
x1 = 0.5928	0.146
x1 = 0.7661	0.11
x1 = 0.8137	0.0932
x1 = 0.8676	0.0715
x1 = 0.8973	0.0566
x1 = 0.9291	0.0406

CCC(=O)O + Cc1cc(C)cc(C)c1
Settings	excess molar enthalpy [kcal/mol]
x1 = 0.0444	0.0055
x1 = 0.0548	0.00574
x1 = 0.0718	0.00598
x1 = 0.134	0.00335
x1 = 0.1884	-0.000239
x1 = 0.2364	-0.00287
x1 = 0.3171	-0.00526
x1 = 0.3824	-0.00717
x1 = 0.4815	-0.00813
x1 = 0.5532	-0.0086
x1 = 0.65	-0.00813
x1 = 0.7359	-0.00645
x1 = 0.7879	-0.00574
x1 = 0.8479	-0.0043
x1 = 0.9176	-0.00287
x1 = 0.9571	-0.00191
